What was measured:
[1] = tested on: Saccharomyces cerevisiae; assay: Cytotoxicity against yeast at 50 uM; assay type: organism-based; conditions: in vivo
[2] = target: NAD-dependent histone deacetylase SIR2 (Saccharomyces cerevisiae S288c) (UniProt P06700); assay: Inhibition of Sir 2 protein mediated transcriptional silencing at the telomeric locus in yeast at 50 uM after 24 to 48 hrs by URA3 reporter gene assay
[3] = target: NAD-dependent histone deacetylase SIR2 (Saccharomyces cerevisiae S288c) (UniProt P06700); assay: Inhibition of Sir 2 protein mediated transcriptional silencing at the telomeric locus in yeast at 1 uM after 24 to 48 hrs by URA3 reporter gene assay
[4] = target: NAD-dependent histone deacetylase SIR2 (Saccharomyces cerevisiae S288c) (UniProt P06700); assay: Inhibition of Sir 2 protein mediated transcriptional silencing at the telomeric locus in yeast after 24 to 48 hrs by URA3 reporter gene assay
[5] = target: NAD-dependent histone deacetylase SIR2 (Saccharomyces cerevisiae S288c) (UniProt P06700); assay: Inhibition of Sir 2 protein mediated transcriptional silencing at the telomeric locus in yeast at 100 uM after 24 to 48 hrs by URA3 reporter gene assay
[6] = target: NAD-dependent histone deacetylase SIR2 (Saccharomyces cerevisiae S288c) (UniProt P06700); assay: Inhibition of Sir 2 protein mediated transcriptional silencing at the telomeric locus in yeast at 30 uM after 24 to 48 hrs by URA3 reporter gene assay
[7] = target: NAD-dependent histone deacetylase SIR2 (Saccharomyces cerevisiae S288c) (UniProt P06700); assay: Inhibition of Sir 2 protein mediated transcriptional silencing at the telomeric locus in yeast at 10 uM after 24 to 48 hrs by URA3 reporter gene assay

NAD-dependent histone deacetylase SIR2 (Saccharomyces cerevisiae S288c), sequence (P06700 whole entry): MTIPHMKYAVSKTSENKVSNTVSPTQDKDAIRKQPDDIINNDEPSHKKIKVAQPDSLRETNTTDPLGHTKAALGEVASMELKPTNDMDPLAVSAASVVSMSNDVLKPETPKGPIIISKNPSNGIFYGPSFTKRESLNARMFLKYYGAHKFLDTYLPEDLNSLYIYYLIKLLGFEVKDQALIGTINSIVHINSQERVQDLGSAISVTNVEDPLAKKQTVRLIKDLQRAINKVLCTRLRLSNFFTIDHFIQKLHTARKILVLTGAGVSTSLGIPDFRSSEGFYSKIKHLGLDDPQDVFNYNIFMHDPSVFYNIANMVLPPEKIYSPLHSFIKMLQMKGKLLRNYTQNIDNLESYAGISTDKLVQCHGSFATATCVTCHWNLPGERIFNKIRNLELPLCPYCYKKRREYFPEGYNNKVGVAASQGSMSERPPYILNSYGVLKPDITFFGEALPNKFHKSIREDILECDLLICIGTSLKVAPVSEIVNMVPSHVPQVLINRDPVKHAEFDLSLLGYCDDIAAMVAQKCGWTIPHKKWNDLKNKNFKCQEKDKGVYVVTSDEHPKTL

Cc1ccc(S(=O)(=O)n2c(CN3C(=O)C4(NC(=O)c5ccccc5N4)c4ccccc43)cc3cc(F)ccc32)cc1 (stereo not drawn)
Activity [1]: Non-toxic
inhibition [2]: 15.2%

COc1ccc2c(c1)cc(CN1C(=O)C3(NC(=O)c4ccccc4N3)c3ccccc31)n2S(=O)(=O)c1ccc(C)cc1 (stereo not drawn)
Activity [1]: Non-toxic
inhibition [3]: 12%
inhibition [4]: Dose-dependent effect
inhibition [2]: 41%
inhibition [5]: 61%
inhibition [6]: 32%
inhibition [7]: 25%

Cc1ccc(S(=O)(=O)n2c(CN3C(=O)C4(NC(=O)c5ccccc5N4)c4ccccc43)cc3cc(Cl)ccc32)cc1 (stereo not drawn)
Activity [1]: Non-toxic
inhibition [3]: 18%
inhibition [4]: Dose-dependent effect
inhibition [2]: 40.9%
inhibition [5]: 56%
inhibition [6]: 37%
inhibition [7]: 30%

CS(=O)(=O)n1c(CN2C(=O)C3(NC(=O)c4ccccc4N3)c3ccccc32)cc2cc(C(F)(F)F)ccc21 (stereo not drawn)
Activity [1]: Non-toxic
inhibition [2]: 39.6%

CS(=O)(=O)n1c(CN2C(=O)C3(NC(=O)c4ccccc4N3)c3ccccc32)cc2ccccc21 (stereo not drawn)
Activity [1]: Non-toxic
inhibition [2]: 13.9%

Cc1ccc(S(=O)(=O)n2c(CN3C(=O)C4(NC(=O)c5ccccc5N4)c4ccccc43)cc3cc(Br)ccc32)cc1 (stereo not drawn)
Activity [1]: Non-toxic
inhibition [2]: 16.4%

CS(=O)(=O)n1c(CN2C(=O)C3(NC(=O)c4ccccc4N3)c3ccccc32)cc2cc(F)ccc21 (stereo not drawn)
Activity [1]: Non-toxic
inhibition [2]: 30.3%

CS(=O)(=O)n1c(CN2C(=O)C3(NC(=O)c4ccccc4N3)c3ccccc32)cc2cc(Br)ccc21 (stereo not drawn)
Activity [1]: Non-toxic
inhibition [2]: 38.5%

CS(=O)(=O)n1c(CN2C(=O)C3(NC(=O)c4ccccc4N3)c3ccccc32)cc2cc(Cl)ccc21 (stereo not drawn)
Activity [1]: Non-toxic
inhibition [2]: 30.9%

Cc1ccc(S(=O)(=O)n2c(CN3C(=O)C4(NC(=O)c5ccccc5N4)c4ccccc43)cc3ccccc32)cc1 (stereo not drawn)
Activity [1]: Non-toxic
inhibition [2]: 36.5%

Cc1ccc(S(=O)(=O)n2c(CN3C(=O)C4(NC(=O)c5ccccc5N4)c4ccccc43)cc3cc(C(F)(F)F)ccc32)cc1 (stereo not drawn)
Activity [1]: Non-toxic
inhibition [2]: 38.4%

Cc1ccc2c(c1)cc(CN1C(=O)C3(NC(=O)c4ccccc4N3)c3ccccc31)n2S(C)(=O)=O (stereo not drawn)
Activity [1]: Non-toxic
inhibition [2]: 40.9%

COc1ccc2c(c1)cc(CN1C(=O)C3(NC(=O)c4ccccc4N3)c3ccccc31)n2S(C)(=O)=O (stereo not drawn)
Activity [1]: Non-toxic
inhibition [3]: 9%
inhibition [4]: Dose-dependent effect
inhibition [2]: 39%
inhibition [5]: 67%
inhibition [6]: 29%
inhibition [7]: 20%

Cc1ccc(S(=O)(=O)n2c(CN3C(=O)C4(NC(=O)c5ccccc5N4)c4ccccc43)cc3cc(C)ccc32)cc1 (stereo not drawn)
Activity [1]: Non-toxic
inhibition [2]: 1.2%

From ChEMBL document CHEMBL2331256, “Spiro heterocycles as potential inhibitors of SIRT1: Pd/C-mediated synthesis of novel N-indolylmethyl spiroindoline-3,2'-quinazolines” (Bioorg Med Chem Lett, 2013)
